Structures can show the parent of a compound that is named as a salt.

One series addresses T1, human recombinant CRF1 (Homo sapiens, UniProt P34998).
T1 construct: expressed in transfected cells
T1 sequence (P34998 24-415): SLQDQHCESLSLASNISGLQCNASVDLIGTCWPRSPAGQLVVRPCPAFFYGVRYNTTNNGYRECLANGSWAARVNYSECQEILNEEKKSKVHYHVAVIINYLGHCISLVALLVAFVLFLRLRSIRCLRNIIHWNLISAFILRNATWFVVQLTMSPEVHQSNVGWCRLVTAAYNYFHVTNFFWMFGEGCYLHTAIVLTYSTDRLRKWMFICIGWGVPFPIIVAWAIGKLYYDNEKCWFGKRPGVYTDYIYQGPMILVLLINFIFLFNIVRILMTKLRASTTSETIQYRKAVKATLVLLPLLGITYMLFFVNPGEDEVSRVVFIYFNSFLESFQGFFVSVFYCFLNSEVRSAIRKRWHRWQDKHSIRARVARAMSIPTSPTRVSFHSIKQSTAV
Put plainly: CRF-stimulated cyclic AMP accumulation in CHO cells expressing human recombinant CRF1 (antagonism, KB from curve shift). The format is cell-based. Particulars: cAMP, shift of CRF curve with antagonist 10 μM. As to the method:
In particular the agents of the invention bind to CRF receptors.
Chinese hamster ovary (CHO) cells expressing human recombinant CRF1 (Chen et al., Proc Natl Acad Sci USA 90, 8967-8971, 1993) are propagated in Dulbecco's modified Eagle medium supplemented with 10% foetal calf serum, non-essential aminoacids, 100 U/ml penicillin, 100 mg/l streptomycin and 1 g/l geneticin (G418). For cyclic AMP determinations, cells are grown to confluence in 24-multiwell plates. Stimulation of cyclic AMP accumulation by CRF (human/rat form) is measured in intact cells, using the [^3H]adenine labelling technique, as described previously (Schoeffter et al., Neuropharmacology 36, 429-437, 1997). Concentration-response curves for CRF are constructed in the presence of putative antagonists (10 μM) or vehicle (dimethyl sulfoxide 1% vol). KB values are calculated from the rightward shifts of the control curve, according to the formula: KB=[antagonist, M]/concentration-ratio-1), where the concentration-ratio designates the ratio of CRF EC50 value in the presence/CRF EC50 value in the absence, of antagonist [Furchgott, In: catecholamines (edited by Blaschko H and Muscholl E) pp. 283-335. Springer, Berlin, 1972].

The next series concerns mouse. Put plainly: mouse elevated plus-maze (anxiolytic activity). It is filed as in vivo. The source says:
For example the anxiolytic activity of the agents of the invention could be confirmed in the mouse elevated plus-maze [see for example Rodgers R. J., Behavioural Pharmacology 8: 477-496 (1997) where the relevance of the elevated plus-maze is discussed on p. 486; for the method, see Rodgers R. J. et al. Ethology and Psychopharmacology (Eds S J Cooper and C A Hendrie), pp 9-44 (1994), J. Wiley, Chichester]. In this test, the agents of the invention show anxiolytic-like effects on administration of 0.1 to 30 mg/kg p.o.

A word on the melting point: it is the temperature of the solid-liquid transition. `CCC(CC)Nc1nc(C)nc(Nc2c(C)cc(C)c3nsnc23)c1C` had a melting point of 113 to 115 °C.
Still for that read-out and setting: the same measure for `CCC(C)Nc1nc(C)nc(Nc2c(C)cc(C)c3nsnc23)c1C` (centres unmarked): 88 °C.
Molecule `CCCN(CCC)c1nc(C)nc(Nc2c(C)cc(C)c3nsnc23)c1C#N` displayed a melting point of 171 to 173 °C.
Still for that read-out and setting: the same measure for `CCN(C)c1nc(C)nc(Nc2c(Cl)cc(Cl)c3nsnc23)c1C`: 116 °C; for `CCCCN(C)c1nc(C)nc(Nc2c(Cl)cc(Cl)c3nsnc23)c1C`: 105 °C; for `CCCN(CC)c1nc(C)nc(Nc2c(Cl)cc(Cl)c3nsnc23)c1C`: 107 °C.
The same measure, in the same setting: to `CCCCN(CC)c1nc(C)nc(Nc2c(Cl)cc(Cl)c3nsnc23)c1C` belongs 101 °C; to `CCCN(CCC)c1nc(C)nc(Nc2c(Cl)cc(Cl)c3nsnc23)c1C`, 118 to 121 °C.
Same read-out and setting: the same measure for `CCCCN(CCCC)c1nc(C)nc(Nc2c(Cl)cc(Cl)c3nsnc23)c1C`: 56 °C; for `C=CCN(CC=C)c1nc(C)nc(Nc2c(Cl)cc(Cl)c3nsnc23)c1C`: 112 °C; for `Cc1nc(NCc2ccccc2)c(C)c(Nc2c(Cl)cc(Cl)c3nsnc23)n1`: 126 °C.
Molecule `Cc1nc(Nc2c(Cl)cc(Cl)c3nsnc23)c(C)c(N(C)Cc2ccccc2)n1` showed a melting point of 138 °C.
On the same count and under the same terms, the same measure for `CCCN(CCC)c1nc(C)nc(Nc2c(C)cc(Cl)c3nsnc23)c1C`: 102 to 104 °C.
Same read-out and setting: to `CCCN(CCC)c1nc(C)nc(Nc2c(Cl)cc(C)c3nsnc23)c1C` belongs 112 to 114 °C; to `CCCN(CCC)c1nc(C)nc(Nc2c(Cl)ccc3nsnc23)c1C`, 77 to 80 °C; to `CCCN(CCC)c1nc(C)nc(Nc2c(C)ccc3nsnc23)c1C`, 95 to 98 °C.
For `CCCN(CCC)c1nc(C)nc(Nc2c(C)cc(C)c3nccnc23)c1C`, the melting point was in the range of 94 to 96 °C.
The same measure, in the same setting: the same measure for `CCCN(CCC)c1nc(C)nc(Nc2c(Cl)cc(Cl)c3nccnc23)c1C`: 126 to 128 °C.
The same measure, in the same setting: to `CCCN(CCC)c1nc(C)nc(Nc2c(Cl)cc(C)c3nccnc23)c1C` belongs 107 to 109 °C; to `CCCN(CC)c1nc(C)nc(Nc2c(Cl)cc(Cl)c3nccnc23)c1C`, 120 to 123 °C; to `CCCN(CC)c1nc(C)nc(Nc2c(C)cc(C)c3nccnc23)c1C`, 109 to 110 °C.
For the molecule `CCCCN(CC)c1nc(C)nc(Nc2c(Cl)cc(Cl)c3nccnc23)c1C`, the melting point is 117 to 119 °C.
On the same count and under the same terms, the same measure for `CCCCN(CC)c1nc(C)nc(Nc2c(C)cc(C)c3nccnc23)c1C`: 106 to 107 °C; for `CCCN(CCC)c1nc(C)nc(Nc2c(C)cc(C)c3nsnc23)c1Cl`: 106 to 108 °C.
Same read-out and setting: the same measure for `CCCN(CC)c1nc(C)nc(Nc2c(C)cc(C)c3nsnc23)c1C`: 101 to 102 °C; for `CCCCN(CC)c1nc(C)nc(Nc2c(C)cc(C)c3nsnc23)c1C`: 83 to 84 °C.
The same measure, in the same setting: the same measure for `CCN(CC)c1nc(C)nc(Nc2c(Cl)cc(Cl)c3nsnc23)c1C` (as salt: fumarate): 189 to 193 °C.
Regarding `CCCN(CCC)c1cc(Nc2c(C)cc(C)c3nsnc23)nc(C)n1` (as salt: fumarate), the melting point fell in the range of 177 to 179 °C.
What is called Kb is the affinity of an antagonist, worked out from how it opposes an agonist. With `CCCN(CCC)c1nc(C)nc(Nc2c(C)cc(C)c3nsnc23)c1C` [Example 1, 5,7-dimethyl-4-[2,5-dimethyl-6-(di-n-propyl)-amino-pyrimidin-4-yl]-amino-2,1,3-benzothiadiazole], the Kb on human recombinant CRF1 came to 36 nM. The “parameters related to motor stimulation in the elevated plus-maze” value in the series on mouse (0.1 to 10 mg/kg p.o., in contrast to the standard chlordiazepoxide) is on record as “not affected”. Further, in the series on mouse (doses of 0.1 to 10 mg/kg p.o.), the “effect on anxiety-related behavioural parameters in the elevated plus-maze” value is on record as “significantly affect the anxiety-related behavioural parameters”. In addition, in the series with mouse (p.o., elevated plus-maze), the “dose of maximum effect on anxiety-related behavioural parameters” value is given as 3 mg/kg.
